Key:
[1] = molecular target: T1, Dopamine beta-hydroxylase (Bos taurus, UniProt P15101); test: Inhibitory activity was determined against bovine dopamine beta-hydroxylase (DBH)
T1 sequence (P15101 whole entry): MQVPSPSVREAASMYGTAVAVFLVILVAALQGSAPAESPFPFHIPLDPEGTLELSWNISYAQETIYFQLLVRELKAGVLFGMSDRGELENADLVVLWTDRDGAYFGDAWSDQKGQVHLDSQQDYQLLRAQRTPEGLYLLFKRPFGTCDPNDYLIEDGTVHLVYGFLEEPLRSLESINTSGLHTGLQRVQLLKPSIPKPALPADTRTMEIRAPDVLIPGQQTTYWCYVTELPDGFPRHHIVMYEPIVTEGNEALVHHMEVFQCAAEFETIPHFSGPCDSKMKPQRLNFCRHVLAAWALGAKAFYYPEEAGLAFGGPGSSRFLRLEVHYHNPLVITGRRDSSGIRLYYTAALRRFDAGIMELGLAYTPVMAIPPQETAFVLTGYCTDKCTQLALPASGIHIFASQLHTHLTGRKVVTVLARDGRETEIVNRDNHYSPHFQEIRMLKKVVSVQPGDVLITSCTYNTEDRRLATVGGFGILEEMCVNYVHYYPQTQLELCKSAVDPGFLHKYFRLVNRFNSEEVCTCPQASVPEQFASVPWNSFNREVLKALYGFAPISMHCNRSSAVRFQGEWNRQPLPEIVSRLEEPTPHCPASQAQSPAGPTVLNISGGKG

[2] = molecular target: T2, Dopamine beta-hydroxylase (Bos taurus) (UniProt P15101); test: Percent inhibition against bovine dopamine beta-hydroxylase (DBH) at 10e-4 M concentration
T2 sequence (whole entry): T1 sequence (P15101 whole entry)

[3] = molecular target: T2, Dopamine beta-hydroxylase (Bos taurus); test: Percent inhibition against bovine dopamine beta-hydroxylase (DBH) at 10e-5 M concentration

Fc1cccc(Cn2ncnc2S)c1
IC50 [1]: 15 µM

O/N=C/c1nccn1Cc1ccccc1
inhibition [2]: 10%

Fc1cc(F)cc(CN2CCN=C2S)c1
IC50 [1]: 1.4 µM

Fc1cc(F)cc(Cn2cccnc2=S)c1
IC50 [1]: 2.8 µM

OCc1nccn1Cc1ccccc1
inhibition [2]: 0%

O=C(O)c1nccn1Cc1ccc(O)cc1
IC50 [1]: 112 µM

Fc1cc(F)cc(Cc2cccnc2S)c1
IC50 [1]: 13.4 µM

S=C1NCCN1Cc1ccccc1
inhibition [3]: 5%

Sc1ncccc1Cc1ccccc1
inhibition [3]: 26%

Fc1cccc(CN2CCNC2=S)c1
IC50 [1]: 3.7 µM

O=C(O)Cc1nccn1Cc1ccc(O)cc1
inhibition [2]: 0%

Sc1ncnn1Cc1ccccc1
IC50 [1]: 75 µM

Oc1c(F)cc(Cn2cnnc2S)cc1F
IC50 [1]: 0.035 µM

S=c1ncccn1Cc1ccccc1
inhibition [3]: 5%

Fc1cc(F)cc(Cn2nc[nH]c2=S)c1
IC50 [1]: 6.2 µM

CSc1nccn1CCCc1ccc(O)cc1
IC50 [1]: 79 µM

O=C(O)c1nccn1Cc1ccccc1
IC50 [1]: 57 µM

Nc1nccn1Cc1ccc(O)cc1
inhibition [2]: 4%

Oc1ccc(Cn2ccnc2)cc1
inhibition [2]: 17%

Fc1cccc(Cc2cccnc2S)c1
inhibition [3]: 34%

Fc1cc(F)cc(Cn2nnnc2S)c1
IC50 [1]: 1.54 µM

Sc1cnnn1Cc1ccccc1
inhibition [3]: 0%

O=C(O)Cc1nccn1Cc1ccccc1
inhibition [2]: 0%

Fc1cccc(Cn2cnnc2S)c1
IC50 [1]: 1.9 µM

Fc1cccc(Cn2cccnc2=S)c1
inhibition [3]: 15%

Sc1nnnn1Cc1ccccc1
IC50 [1]: 16 µM

NCc1nccn1Cc1ccc(O)cc1
IC50 [1]: 165 µM

Source: ChEMBL document CHEMBL1124701, “Some benzyl-substituted imidazoles, triazoles, tetrazoles, pyridinethiones, and structural relatives as multisubstrate inhibitors of dopamine beta-hydroxylase. 4. Structure-activity relationships at the copper binding site” (J Med Chem, 1990)
